PMC5218480 (PLoS ONE, 2017)

Test system: MV-4-11 cells
Experiment: Gene expression microarray analysis (Affymetrix PrimeView) and GSEA
Assay type: cell-based, human
Parameters: RFU PODN (11730768_x_at) / Fold change /veh PODN (11730768_x_at) / RFU LINC00158 (11744669_a_at) / Fold change /veh LINC00158 (11744669_a_at) / RFU DUSP10 (11751237_a_at) / Fold change /veh DUSP10 (11751237_a_at) / RFU ID3 (11757404_x_at) / Fold change /veh ID3 (11757404_x_at) / RFU PLEKHG5 (11737974_s_at) / Fold change /veh PLEKHG5 (11737974_s_at) / RFU LRRC4B (11730491_at) / Fold change /veh LRRC4B (11730491_at) / RFU GIMAP4 (11747438_a_at) / Fold change /veh GIMAP4 (11747438_a_at) / RFU KRT8 (11758183_x_at) / Fold change /veh KRT8 (11758183_x_at) / RFU CNN1 (11734310_a_at) / Fold change /veh CNN1 (11734310_a_at) / RFU VPS37D (11726825_at) / Fold change /veh VPS37D (11726825_at) / RFU C10orf10 (11716522_x_at) / Fold change /veh C10orf10 (11716522_x_at) / RFU KIR2DL2 /// KIR2DL4 /// KIR2DL5A /// KIR2DL5B /// KIR2DS1 /// KIR2DS2 /// KIR2DS3 /// KIR2DS4 /// KIR3DL3 /// KIR3DL3 /// KIR3DS1 (11738374_at) / Fold change /veh KIR2DL2 /// KIR2DL4 /// KIR2DL5A /// KIR2DL5B /// KIR2DS1 /// KIR2DS2 /// KIR2DS3 /// KIR2DS4 /// KIR3DL3 /// KIR3DL3 /// KIR3DS1 (11738374_at) / RFU C1QL1 (11718748_at) / Fold change /veh C1QL1 (11718748_at) / RFU TMPRSS4 (11747572_a_at) / Fold change /veh TMPRSS4 (11747572_a_at) / RFU HAMP (11756126_x_at) / Fold change /veh HAMP (11756126_x_at) / RFU RNFT2 (11725882_a_at) / Fold change /veh RNFT2 (11725882_a_at) / RFU NR4A2 (11747474_a_at) / Fold change /veh NR4A2 (11747474_a_at) / RFU ABCC12 (11746883_a_at) / Fold change /veh ABCC12 (11746883_a_at) / RFU TMEM136 (11760407_x_at) / Fold change /veh TMEM136 (11760407_x_at) / RFU CLDN22 /// WWC2 (11732394_at) / Fold change /veh CLDN22 /// WWC2 (11732394_at) / RFU HLA-DPB1 (11760878_x_at) / Fold change /veh HLA-DPB1 (11760878_x_at) / RFU SPINT1 (11716480_a_at) / Fold change /veh SPINT1 (11716480_a_at) / RFU GAP43 (11754022_s_at) / Fold change /veh GAP43 (11754022_s_at) / RFU A4GNT (11735810_at) / Fold change /veh A4GNT (11735810_at) / RFU PRB3 (11715151_x_at) / Fold change /veh PRB3 (11715151_x_at) / RFU TUBB4B (11761932_at) / Fold change /veh TUBB4B (11761932_at) / RFU CAPN14 (11732068_a_at) / Fold change /veh CAPN14 (11732068_a_at) / RFU TMCC2 (11721928_a_at) / Fold change /veh TMCC2 (11721928_a_at) / RFU IRGQ (11745062_a_at) / Fold change /veh IRGQ (11745062_a_at) / RFU FAM174B (11720279_a_at) / Fold change /veh FAM174B (11720279_a_at) / RFU TMPRSS4 (11748680_a_at) / Fold change /veh TMPRSS4 (11748680_a_at) / RFU FAM212B (11763350_a_at) / Fold change /veh FAM212B (11763350_a_at) / RFU PLEKHG5 (11743358_a_at) / Fold change /veh PLEKHG5 (11743358_a_at) / RFU ZSCAN30 (11745921_a_at) / Fold change /veh ZSCAN30 (11745921_a_at) / RFU CMKLR1 (11741424_a_at) / Fold change /veh CMKLR1 (11741424_a_at) / RFU LOC101060620 /// MAPK8IP1 (11723275_at) / Fold change /veh LOC101060620 /// MAPK8IP1 (11723275_at) / RFU SPTSSB (11747773_x_at) / Fold change /veh SPTSSB (11747773_x_at) / RFU PRSS12 (11739890_at) / Fold change /veh PRSS12 (11739890_at) / RFU BIN1 (11741810_x_at) / Fold change /veh BIN1 (11741810_x_at) / RFU WNT11 (11732464_a_at) / Fold change /veh WNT11 (11732464_a_at) / RFU C10orf10 (11716521_a_at) / Fold change /veh C10orf10 (11716521_a_at) / RFU C5orf56 (11738089_at) / Fold change /veh C5orf56 (11738089_at) / RFU CYB561 (11721691_x_at) / Fold change /veh CYB561 (11721691_x_at) / RFU ANKRD19P (11752326_a_at) / Fold change /veh ANKRD19P (11752326_a_at) / RFU OR2T12 /// OR2T33 /// OR2T8 (11738714_s_at) / Fold change /veh OR2T12 /// OR2T33 /// OR2T8 (11738714_s_at) / RFU VCAN (11748164_a_at) / Fold change /veh VCAN (11748164_a_at) / RFU JSRP1 (11732532_at) / Fold change /veh JSRP1 (11732532_at) / RFU KRTAP10-11 (11738290_x_at) / Fold change /veh KRTAP10-11 (11738290_x_at) / RFU MYO3A (11730013_a_at) / Fold change /veh MYO3A (11730013_a_at) / RFU EBF3 (11725865_a_at) / Fold change /veh EBF3 (11725865_a_at) / RFU CAMK2N1 (11719241_x_at) / Fold change /veh CAMK2N1 (11719241_x_at) / RFU C5orf56 (11738088_a_at) / Fold change /veh C5orf56 (11738088_a_at) / RFU OLFML3 (11715873_a_at) / Fold change /veh OLFML3 (11715873_a_at) / RFU LOC100653217 /// NTM (11731650_a_at) / Fold change /veh LOC100653217 /// NTM (11731650_a_at) / RFU MAPK11 (11762145_a_at) / Fold change /veh MAPK11 (11762145_a_at) / RFU FIZ1 (11724087_x_at) / Fold change /veh FIZ1 (11724087_x_at) / RFU OASL (11726364_x_at) / Fold change /veh OASL (11726364_x_at) / RFU SOX15 (11748057_x_at) / Fold change /veh SOX15 (11748057_x_at) / RFU CD79A (11719716_a_at) / Fold change /veh CD79A (11719716_a_at) / RFU HIST1H1D (11736915_at) / Fold change /veh HIST1H1D (11736915_at) / RFU CASKIN2 (11723855_a_at) / Fold change /veh CASKIN2 (11723855_a_at) / RFU LOC730098 (11760151_x_at) / Fold change /veh LOC730098 (11760151_x_at) / RFU OR4N2 (11742367_at) / Fold change /veh OR4N2 (11742367_at) / RFU PRRT2 (11749266_a_at) / Fold change /veh PRRT2 (11749266_a_at) / RFU SNX32 (11753110_a_at) / Fold change /veh SNX32 (11753110_a_at) / RFU CDHR5 (11726645_a_at) / Fold change /veh CDHR5 (11726645_a_at) / RFU RCAN1 (11760418_a_at) / Fold change /veh RCAN1 (11760418_a_at) / RFU FAM167A (11723789_a_at) / Fold change /veh FAM167A (11723789_a_at) / RFU FAM26E (11764081_at) / Fold change /veh FAM26E (11764081_at) / RFU ISYNA1 (11749810_s_at) / Fold change /veh ISYNA1 (11749810_s_at) / RFU ACY1 (11761880_at) / Fold change /veh ACY1 (11761880_at) / RFU 11764098_at / Fold change /veh 11764098_at / RFU SAMD14 (11745864_x_at) / Fold change /veh SAMD14 (11745864_x_at) / RFU NPB (11741838_a_at) / Fold change /veh NPB (11741838_a_at) / RFU TMPRSS6 (11731388_a_at) / Fold change /veh TMPRSS6 (11731388_a_at) / RFU KRTAP10-2 (11738614_at) / Fold change /veh KRTAP10-2 (11738614_at) / RFU ARHGAP8 /// PRR5-ARHGAP8 (11727945_x_at) / Fold change /veh ARHGAP8 /// PRR5-ARHGAP8 (11727945_x_at) / RFU KRTAP5-7 /// NADSYN1 (11734609_at) / Fold change /veh KRTAP5-7 /// NADSYN1 (11734609_at) / RFU RASL12 (11751679_a_at) / Fold change /veh RASL12 (11751679_a_at) / RFU CDKN2B (11736163_a_at) / Fold change /veh CDKN2B (11736163_a_at) / RFU PRF1 (11729649_at) / Fold change /veh PRF1 (11729649_at) / RFU, ZNF638 /// ZNF638-IT1 / Fold change vs veh, ZNF638 /// ZNF638-IT1 / RFU, PANK3 / Fold change vs veh, PANK3 / RFU, SH3YL1 / Fold change vs veh, SH3YL1 / RFU, ZEB2 / Fold change vs veh, ZEB2 / RFU, NRIP1 / Fold change vs veh, NRIP1 / RFU, PTTG1IP / Fold change vs veh, PTTG1IP / RFU, CAPN2 / Fold change vs veh, CAPN2 / RFU, MED14 / Fold change vs veh, MED14 / RFU, SNORA58 / Fold change vs veh, SNORA58 / RFU, C1orf63 / Fold change vs veh, C1orf63 / RFU, LRRFIP1 / Fold change vs veh, LRRFIP1 / RFU, NDUFAF7 / Fold change vs veh, NDUFAF7 / RFU, SLC12A2 / Fold change vs veh, SLC12A2 / RFU, IBTK / Fold change vs veh, IBTK / RFU, ESF1 / Fold change vs veh, ESF1 / Fold change vs veh, TMEM50B / RFU, TAOK1 / Fold change vs veh, TAOK1 / RFU, ACBD3 / Fold change vs veh, ACBD3 / RFU, TMA16 / Fold change vs veh, TMA16 / RFU, RWDD3 / Fold change vs veh, RWDD3 / RFU, BCAT1 / Fold change vs veh, BCAT1 / RFU, EDEM3 / Fold change vs veh, EDEM3 / RFU, TMEM33 / Fold change vs veh, TMEM33 / RFU, WDR75 / Fold change vs veh, WDR75 / RFU, AHCTF1 / Fold change vs veh, AHCTF1 / RFU, TFRC / Fold change vs veh, TFRC / RFU, ZDHHC17 / Fold change vs veh, ZDHHC17 / RFU, NOM1 / Fold change vs veh, NOM1 / RFU, ARL8B / Fold change vs veh, ARL8B / RFU, ZBTB11 / Fold change vs veh, ZBTB11 / RFU, TAMM41 / Fold change vs veh, TAMM41 / RFU, KIAA1704 /// LOC100996395 / Fold change vs veh, KIAA1704 /// LOC100996395 / RFU, ING1 / Fold change vs veh, ING1 / RFU, TRMT61B / Fold change vs veh, TRMT61B / RFU, FUBP3 / Fold change vs veh, FUBP3 / RFU, TP53 / Fold change vs veh, TP53 / RFU, TNKS2 / Fold change vs veh, TNKS2 / RFU, ZFP14 / Fold change vs veh, ZFP14 / RFU, ACTR2 / Fold change vs veh, ACTR2 / RFU, PPP3R1 / Fold change vs veh, PPP3R1 / RFU, PIK3R1 / Fold change vs veh, PIK3R1 / RFU, HNRNPA1 / Fold change vs veh, HNRNPA1 / RFU, RNF170 / Fold change vs veh, RNF170 / RFU, ZNF28 / Fold change vs veh, ZNF28 / RFU, RNGTT / Fold change vs veh, RNGTT / RFU, OGT / Fold change vs veh, OGT / RFU, BRD1 / Fold change vs veh, BRD1 / RFU, MARS / Fold change vs veh, MARS / RFU, ZNF655 / Fold change vs veh, ZNF655 / RFU, FAHD1 / Fold change vs veh, FAHD1 / RFU, BDP1 / Fold change vs veh, BDP1 / RFU, LRRCC1 / Fold change vs veh, LRRCC1 / RFU, ARID1A / Fold change vs veh, ARID1A / RFU, ZNF146 / Fold change vs veh, ZNF146 / RFU, ZNF330 / Fold change vs veh, ZNF330 / RFU, GPN3 / Fold change vs veh, GPN3 / RFU, C9orf123 / Fold change vs veh, C9orf123 / RFU, N4BP2L2 / Fold change vs veh, N4BP2L2 / RFU, ARFIP1 / Fold change vs veh, ARFIP1 / RFU, FAM179B / Fold change vs veh, FAM179B / RFU, BCL10 / Fold change vs veh, BCL10 / RFU, UHRF1BP1L / Fold change vs veh, UHRF1BP1L / RFU, BET1 / Fold change vs veh, BET1 / RFU, CNOT2 / Fold change vs veh, CNOT2 / RFU, ZNF268 / Fold change vs veh, ZNF268 / Fold change vs veh, ZNF507 / RFU, DGCR2 / Fold change vs veh, DGCR2 / RFU, WDSUB1 / Fold change vs veh, WDSUB1 / Fold change vs veh, HSP90B1 /// MIR3652 / RFU, ADSS / Fold change vs veh, ADSS / RFU, GK / Fold change vs veh, GK / RFU, ZNF148 / Fold change vs veh, ZNF148 / RFU, TAF9 / Fold change vs veh, TAF9 / RFU, SLC1A5 / Fold change vs veh, SLC1A5 / RFU, SLMO2 / Fold change vs veh, SLMO2 / RFU, ABCC4 / Fold change vs veh, ABCC4 / RFU, LOC101060439 /// RAP1B / Fold change vs veh, LOC101060439 /// RAP1B / RFU, RFX7 / Fold change vs veh, RFX7 / RFU, GTPBP10 / Fold change vs veh, GTPBP10 / RFU, CNEP1R1 / Fold change vs veh, CNEP1R1 / RFU, BIVM-ERCC5 /// ERCC5 / Fold change vs veh, BIVM-ERCC5 /// ERCC5 / RFU, ILF3 / Fold change vs veh, ILF3 / RFU 11762660_at / Fold change /veh 11762660_at / RFU VCAN (11757783_s_at) / Fold change /veh VCAN (11757783_s_at) / RFU DDX43 (11728927_at) / Fold change /veh DDX43 (11728927_at) / RFU KRT8 (11758188_x_at) / Fold change /veh KRT8 (11758188_x_at) / RFU NKD1 (11759106_at) / Fold change /veh NKD1 (11759106_at) / RFU SRD5A1 (11742802_a_at) / Fold change /veh SRD5A1 (11742802_a_at) / RFU TPSAB1 /// TPSB2 (11721975_s_at) / Fold change /veh TPSAB1 /// TPSB2 (11721975_s_at) / RFU GSTM3 (11746129_a_at) / Fold change /veh GSTM3 (11746129_a_at) / RFU IL23R (11737362_x_at) / Fold change /veh IL23R (11737362_x_at) / RFU TMEM51 (11727254_a_at) / Fold change /veh TMEM51 (11727254_a_at) / RFU PIWIL2 (11732686_x_at) / Fold change /veh PIWIL2 (11732686_x_at) / RFU ORM1 (11744905_x_at) / Fold change /veh ORM1 (11744905_x_at) / RFU CCDC152 (11743942_at) / Fold change /veh CCDC152 (11743942_at) / RFU ECM1 (11717891_a_at) / Fold change /veh ECM1 (11717891_a_at) / RFU IL23R (11748794_a_at) / Fold change /veh IL23R (11748794_a_at) / RFU TNFAIP8L3 (11732012_x_at) / Fold change /veh TNFAIP8L3 (11732012_x_at) / RFU MBOAT4 (11741988_at) / Fold change /veh MBOAT4 (11741988_at) / RFU 11764193_at / Fold change /veh 11764193_at / RFU TMEM53 (11763286_at) / Fold change /veh TMEM53 (11763286_at) / RFU MAGEB2 (11727129_at) / Fold change /veh MAGEB2 (11727129_at) / RFU TMEM200A (11744735_a_at) / Fold change /veh TMEM200A (11744735_a_at) / RFU CCDC152 (11751479_a_at) / Fold change /veh CCDC152 (11751479_a_at) / RFU FAM211A (11726209_a_at) / Fold change /veh FAM211A (11726209_a_at) / RFU RGS16 (11746705_a_at) / Fold change /veh RGS16 (11746705_a_at) / RFU VCAN (11755009_s_at) / Fold change /veh VCAN (11755009_s_at) / RFU RHOB (11743442_s_at) / Fold change /veh RHOB (11743442_s_at) / RFU RGS16 (11720943_a_at) / Fold change /veh RGS16 (11720943_a_at) / RFU RGS16 (11720944_at) / Fold change /veh RGS16 (11720944_at) / RFU, VPS4B / Fold change vs veh, VPS4B / RFU, CREB1 / Fold change vs veh, CREB1 / RFU, DNAJC13 / Fold change vs veh, DNAJC13 / RFU, GNAQ / Fold change vs veh, GNAQ / RFU, CDK5R1 / Fold change vs veh, CDK5R1 / RFU, ZRANB3 / Fold change vs veh, ZRANB3 / RFU, CUL4A / Fold change vs veh, CUL4A / RFU, CCNY / Fold change vs veh, CCNY / RFU, UFL1 / Fold change vs veh, UFL1 / RFU, COG3 / Fold change vs veh, COG3 / RFU, DIAPH2 / Fold change vs veh, DIAPH2 / RFU, SKA2 / Fold change vs veh, SKA2 / RFU, AFF3 / Fold change vs veh, AFF3 / RFU, LMF1 / Fold change vs veh, LMF1 / RFU, IPO11 / Fold change vs veh, IPO11 / RFU, DFFB / Fold change vs veh, DFFB / RFU, FOXP1 / Fold change vs veh, FOXP1 / RFU, CARD8 / Fold change vs veh, CARD8 / RFU, STRN3 / Fold change vs veh, STRN3 / RFU, ADK / Fold change vs veh, ADK / RFU, RASSF2 / Fold change vs veh, RASSF2 / RFU, WIPF1 / Fold change vs veh, WIPF1 / RFU, LARP1B / Fold change vs veh, LARP1B / RFU, RASA1 / Fold change vs veh, RASA1 / RFU, RB1 / Fold change vs veh, RB1 / RFU, PPFIA1 / Fold change vs veh, PPFIA1 / RFU, MAT2A / Fold change vs veh, MAT2A / RFU, CCT5 / Fold change vs veh, CCT5 / RFU, WDR92 / Fold change vs veh, WDR92 / RFU, CUX1 / Fold change vs veh, CUX1 / RFU, TTC7A / Fold change vs veh, TTC7A / RFU, TMEM135 / Fold change vs veh, TMEM135 / RFU, DEPTOR / Fold change vs veh, DEPTOR / RFU, CPM / Fold change vs veh, CPM / RFU, DNAJB6 / Fold change vs veh, DNAJB6 / RFU, CACNA2D3 / Fold change vs veh, CACNA2D3 / RFU, DTX4 / Fold change vs veh, DTX4 / RFU, TFCP2 / Fold change vs veh, TFCP2 / RFU, GMCL1 /// GMCL1P1 / Fold change vs veh, GMCL1 /// GMCL1P1 / RFU, AEBP2 / Fold change vs veh, AEBP2 / RFU, SNHG1 /// SNORD22 /// SNORD25 /// SNORD26 /// SNORD27 /// SNORD28 /// SNORD29 /// SNORD31 / Fold change vs veh, SNHG1 /// SNORD22 /// SNORD25 /// SNORD26 /// SNORD27 /// SNORD28 /// SNORD29 /// SNORD31 / Fold change (Aza/veh), C12orf56 (ProbeSet 11735607_a_at) / Fold change (ACY-1035/veh), C12orf56 (ProbeSet 11735607_a_at) / Fold change (Aza/veh), FGFR1OP (ProbeSet 11751329_s_at) / Fold change (ACY-1035/veh), FGFR1OP (ProbeSet 11751329_s_at) / Fold change (Aza/veh), VPS36 (ProbeSet 11739960_a_at) / Fold change (ACY-1035/veh), VPS36 (ProbeSet 11739960_a_at) / RFU SYPL1 (11715823_x_at) / Fold change /veh SYPL1 (11715823_x_at) / RFU IGFBP7 (11715501_s_at) / Fold change /veh IGFBP7 (11715501_s_at) / RFU REEP3 (11722064_at) / Fold change /veh REEP3 (11722064_at) / RFU IGLL1 (11728026_x_at) / Fold change /veh IGLL1 (11728026_x_at): dose or concentration left out as unconfirmed
Conditions: MV-4-11 cells, 48 hours

Nc1ncn([C@@H]2O[C@H](CO)[C@@H](O)[C@H]2O)c(=O)n1 [azacitidine]
RFU FAM212B (11763350_a_at): 32.55 RFU
